Measurements: patent publication US8921421B2, “Inhibitors of dimethylarginine dimethylaminohydrolase” (Christian-Albrechts-Universitaet Zu Kiel, priority 2008, dated 2014)

Key:
Assay type in all cases: biochemical
hDDAH-1 [1] = target: T1, hDDAH-1 (Homo sapiens (Human), UniProt O94760); assay: In vitro hDDAH-1 assay (HPLC), inhibition at 1 mM inhibitor; settings: inhibitor 1 mM, NMMA 200 μM, 2 μg hDDAH-1, 30 min 37° C.; MV±SD of at least four incubations
Experimental: This assay was used to determine the inhibiting effect of the inhibitors in a concentration of 1 mM. A standard incubation mixture consisted of 75 μl of 50 mM potassium phosphate buffer pH 7.4 and contained NMMA in a concentration of 200 μM. The inhibitors were used in final concentrations of 1 mM. By adding 2 μg of hDDAH-1, the reaction was started and the samples were incubated for 30 minutes at 37° C. in, a shaking water bath. The reaction was then stopped by adding 75 μl of acetonitrile, the samples were shaken for 5′ minutes and centrifuged (12,000 g, 5 min). The supernatant was added to the HPLC.
In addition, three incubations without added inhibitor were carried out in each case and worked up as specified above. The L-citrulline concentration detected in the samples was set at 100% and the amount of L-citrulline formed in the samples with added inhibitor was referred to this value.
For analysing the samples of the in vitro hDDAH-1 assay (HPLC), o-PA pre-column derivatisation was used with subsequent fluorescence detection of the amino acids. • HPLC plant: Waters Autosampler 717plus, Waters 600 Controller, Waters 600 Pump, Waters Fluorescence Detector 470 and EZChrom Elite Client/Server Measurement and evaluation software (version 2.8.3) • Stationary phase: NovaPak RP-18 column 4 μm (4×150 mm, VDS Optilab) pre-column: Phenomenex C18 (4×3.0 mm) • Temperature: 30° C.
• Detection: Fluorescence: λex: 338 nm; 425 nm. • Injection volume: 10 μl • Derivat. reagent: 50 mg o-PA dissolved in 1 ml of methanol • +9 ml 0.2 M of potassium borate buffer pH 9.4 • +53 μl 2-mercaptoethanol • Derivatisation: The auto sampler was programmed such that 10 μl of the sample were mixed with 14 μl of the derivatisation reagent and could react for 3 minutes at room, temperature prior to injection. Retention times: • L-citrulline 12.2±0.3 min • NMMA 15.8±0.4 min • Methylamine 23.4±0.1 min

hDDAH-1 [2] = target: T1, hDDAH-1; assay: Determination of the IC50 value (plate-reader assay); settings: NMMA 300 μM, 4 μg recombinant hDDAH-1, 30 min 37° C.; determined at least twice
Experimental: The samples for the plate-reader assay were incubated directly on a 96-well microtiter plate. An incubation mixture consisted of 150 μl of 50 mM potassium phosphate buffer pH 7.4 with NMMA in a final concentration of 300 μM. The inhibitor was added in five different concentrations and the reaction was started by adding 4 μg of recombinant hDDAH-1. In addition, two mixtures without added inhibitor were incubated. The plate was closed with a lid and incubated for 30 minutes on a plate incubator (shaker DTS-4, LTF-Labortechnik GmbH, Wasserburg, Germany) at 37° C. The reactions were stopped using 200 μl of the Colder reagent and the citrulline that had formed was derivatised (see derivatisation for plate-reader assay). The IC50 value was then calculated by means of SigmaPlot 8.0 (SPSS Chicago, USA). Derivatisation was carried out on particularly heat-stable 96-well microtiter plates. 200 μl of the Colder reagent was added to the samples (150 μl) and to prevent evaporation, the plate was closed with a heat-stable adhesive film (Nunc, Wiesbaden, Germany). Colour formation then took place in the drying oven at 95° C. for 15-20 minutes. Before photometric measurements were taken, there was a wait until the plate had reached room temperature and then the colour intensity at 540.5 nm (Carry 50 microplate reader, Varian, Darmstadt, Germany) was measured.

hDDAH-1 [3] = target: T1, hDDAH-1; assay: Determination of the Ki value (plate-reader assay); settings: five NMMA concentrations (50-1250 μM), recombinant hDDAH-1; determined at least twice
Experimental: The Ki value was determined as described for the IC50 value, with the difference that five different NMMA concentrations (50, 100, 300, 750 and 1250 μM) were used. The incubations were carried out such that each NMMA concentration was in each case incubated twice with each of the five inhibitor concentrations. On top of this, incubations using the different NMMA concentrations were carried out without added inhibitor.
For each inhibitor concentration, using SigmaPlot 8.0 (SPSS Inc., Chicago, USA) the respective apparent Km value and Vmax were determined. Via secondary plotting of the inhibitor concentrations versus Km/Vmax the Ki value was determined by extrapolation of the least-squares lines onto the abscissa.
Derivatisation was carried out on particularly heat-stable 96-well microtiter plates. 200 μl of the Colder reagent was added to the samples (150 μl) and to prevent evaporation, the plate was closed with a heat-stable adhesive film (Nunc, Wiesbaden, Germany). Colour formation then took place in the drying oven at 95° C. for 15-20 minutes. Before photometric measurements were taken, there was a wait until the plate had reached room temperature and then the colour intensity at 540.5 nm (Carry 50 microplate reader, Varian, Darmstadt, Germany) was measured. Measurement took place during 20 minutes since the reaction product is not stable (Knipp and Vasak 2000).

T1 sequence (O94760 whole entry): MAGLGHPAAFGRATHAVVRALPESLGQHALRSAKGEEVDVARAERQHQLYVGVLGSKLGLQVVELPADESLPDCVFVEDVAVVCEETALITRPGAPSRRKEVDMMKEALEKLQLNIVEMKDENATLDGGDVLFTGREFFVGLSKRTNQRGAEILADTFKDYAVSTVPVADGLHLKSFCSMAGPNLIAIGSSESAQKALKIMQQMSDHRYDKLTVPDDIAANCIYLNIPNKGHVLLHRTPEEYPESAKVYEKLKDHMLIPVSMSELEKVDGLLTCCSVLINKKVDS

| inhibition at 1000 µM (hDDAH-1 [1]) | IC50 (hDDAH-1 [2]) | Ki (hDDAH-1 [3]) | Compound |
| --- | --- | --- | --- |
| 40 ± 6% |  |  | C=CCC(=N)NCCCCN [Substance 5, N-(4′-aminobutyl)but-3-enamidine bis(trifluoracetate)] |
| 80 ± 5% | 70 ± 16 µM | 18 ± 6 µM | COCC/N=C(/N)NCCCCN [Substance 3, N-(4-aminobutyl)-N′-(2-methoxyethyl)guanidine bis(trifluoracetate)] |

| Compound | inhibition at 1000 µM (hDDAH-1 [1]) | IC50 (hDDAH-1 [2]) | Ki (hDDAH-1 [3]) |
| --- | --- | --- | --- |
| COCCNC(=N)NCCC[C@H](N)C(=O)O [Substance L-257, N^ω-(2-methoxyethyl)-L-arginine, reference compound] | 89 ± 2% |  |  |
